The record followed here is PubChem BioAssay (NCI).

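All cell lines were grown in 96-well plates and treated with compound for 48 hours. TGI is the concentration that stops growth completely.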

Some test systems named below: RXF 393 renal; K-562 leukemia; HT29 colon; SN12C renal; A549 NSCLC; OVCAR-8 ovarian; M14 melanoma; NCI-H23 lung; EKVX NSCLC; HOP-92 NSCLC; NCI/ADR-RES ovarian.
Common to all, as to test: growth of human tumour cells (NCI), 48 h

In the case of `OCc1ccccc1C1CSCSC1`, the TGI in the test with RXF 393 renal, in the test with K-562 leukemia, in the test with HT29 colon, in the test on SN12C renal, in the test on A549 NSCLC and with OVCAR-8 ovarian was > 100 µM in each case.

In the case of `CCOC(=O)C(=O)N1C(C)=C(C(=O)OCC)CC(C(=O)OCC)=C1C`, the TGI in the test with M14 melanoma, in the test with NCI-H23 lung, with EKVX NSCLC, in the test with RXF 393 renal, in the test with K-562 leukemia and in the test on SN12C renal was > 100 µM in each case. Moreover, the TGI in the test with A549 NSCLC and in the test on HOP-92 NSCLC was > 100 µM throughout.

With `Cc1nc(Cl)c(CBr)c(Cl)n1`, the TGI with M14 melanoma was 0.949 µM; in the test on NCI-H23 lung it was 3.69 µM; in the test on EKVX NSCLC, 11.8 µM; in the test on RXF 393 renal, 5.03 µM; in the test on K-562 leukemia it was 0.887 µM; in the test on SN12C renal, 3.75 µM. Moreover, the TGI in the test with A549 NSCLC is 12.4 µM; in the test with NCI/ADR-RES ovarian, 7.8 µM; in the test with OVCAR-8 ovarian it was 6.47 µM.

In the case of `O=C(/C=C/c1cccs1)c1ccc(Cl)cc1`, the TGI in the test with NCI-H23 lung, in the test with EKVX NSCLC, with HT29 colon, with SN12C renal, in the test with A549 NSCLC and in the test on NCI/ADR-RES ovarian was > 100 µM each time. In addition, in the test on OVCAR-8 ovarian, the TGI was > 100 µM.

As to `COc1cccc(C2c3cc4c(cc3OC(N3CCCC3)C2C)OCO4)c1OC` (centres undefined), the TGI was found to be 23.8 µM in the test on M14 melanoma; 97.8 µM with EKVX NSCLC; 30.5 µM in the test on K-562 leukemia; 11.3 µM in the test with HT29 colon; 14.5 µM in the test on SN12C renal; 25.5 µM with A549 NSCLC. Also, the values for the TGI in the test on NCI/ADR-RES ovarian and in the test on OVCAR-8 ovarian were 15 µM and 39.8 µM, respectively.

Turning to `CC(=O)Nc1ccc(Cl)c(Cl)c1`, the TGI in the test on M14 melanoma, in the test on NCI-H23 lung, in the test on EKVX NSCLC, with RXF 393 renal, in the test with K-562 leukemia and with HT29 colon was > 100 µM throughout. The TGI in the test on SN12C renal, in the test with A549 NSCLC and in the test with OVCAR-8 ovarian was > 100 µM each time.

With `O=C1/C(=C/c2ccc(Br)s2)NC(=S)N1CN1CCOCC1`, the TGI with NCI-H23 lung was > 100 µM; with EKVX NSCLC, > 100 µM; in the test with RXF 393 renal, 59.7 µM; with K-562 leukemia, 99.2 µM; with HT29 colon, > 100 µM; with SN12C renal, > 100 µM. Besides, the TGI in the test on NCI/ADR-RES ovarian and in the test on OVCAR-8 ovarian was > 100 µM each time.

Turning to `Cc1cc2cccc(Cl)c2nc1C(=O)c1ccccc1`, the TGI in the test on M14 melanoma, with NCI-H23 lung, in the test on RXF 393 renal, in the test with K-562 leukemia, with SN12C renal and with A549 NSCLC was > 100 µM each time. The TGI with OVCAR-8 ovarian is > 100 µM.

`C=CCCCC12CCCc3cccc(c31)NC2=O` (centres undefined): the TGI with M14 melanoma was 31.1 µM; in the test with NCI-H23 lung it was 36.8 µM; in the test on EKVX NSCLC, 37.3 µM; in the test with RXF 393 renal, 42.8 µM; in the test on K-562 leukemia, 78.3 µM; in the test with SN12C renal, > 100 µM. Besides, the TGI was 51.2 µM with A549 NSCLC and 31.8 µM in the test on HOP-92 NSCLC.

For the compound `COc1cccc(-c2nc(-c3cnccn3)n(Cc3ccccc3)n2)c1`, the TGI in the test with M14 melanoma is > 100 µM; with NCI-H23 lung it was > 100 µM; with EKVX NSCLC, > 100 µM; in the test on RXF 393 renal, 64 µM; with K-562 leukemia it was > 100 µM; in the test on HT29 colon, > 100 µM. Besides, the TGI in the test on SN12C renal is > 100 µM; in the test on A549 NSCLC, > 100 µM; in the test on OVCAR-8 ovarian, > 100 µM; with HOP-92 NSCLC, 81.1 µM.

Regarding `Cc1ccc(C(=O)Nc2ccc(CP(=O)(O)O)cc2)cc1NC(=O)c1cccc(NC(=O)Nc2cccc(C(=O)Nc3cc(C(=O)Nc4ccc(CP(=O)(O)O)cc4)ccc3C)c2)c1`, the TGI with M14 melanoma, in the test with NCI-H23 lung, in the test on EKVX NSCLC, in the test with RXF 393 renal, in the test with K-562 leukemia and in the test with HT29 colon was > 100 µM in each case. For the same compound, the TGI with SN12C renal, with A549 NSCLC, with NCI/ADR-RES ovarian and with OVCAR-8 ovarian was > 100 µM in each case.

Consider `CC1CC(C#N)=C2NCCCCN2C1=O` (centres undefined), for which the TGI in the test on M14 melanoma, in the test on NCI-H23 lung, in the test on EKVX NSCLC, in the test on RXF 393 renal, with K-562 leukemia and in the test with HT29 colon was > 100 µM in each case. The TGI with SN12C renal, with A549 NSCLC, with NCI/ADR-RES ovarian and in the test on OVCAR-8 ovarian was > 100 µM throughout.

Turning to `COc1ccc(CNc2nc3ccc(C(F)(F)F)cc3nc2-c2ccccc2)cc1OC`, the TGI with NCI-H23 lung, in the test with EKVX NSCLC, in the test on RXF 393 renal, with HT29 colon, in the test on SN12C renal and with A549 NSCLC was > 100 µM each time. For the same compound, the figures for the TGI in the test on OVCAR-8 ovarian and in the test on HOP-92 NSCLC were > 100 µM and 15.5 µM, respectively.

Take `COC1C=CC23c4cc5c(cc4C(O)OC2CN(C)C3C1)OCO5` (centres undefined): the TGI in the test with M14 melanoma was found to be 3.15 µM; in the test with NCI-H23 lung it was 27.4 µM; in the test on EKVX NSCLC, 32.9 µM; in the test on K-562 leukemia it was 14.3 µM; in the test on SN12C renal, 7.88 µM; in the test with A549 NSCLC, 9.49 µM. This compound showed a TGI in the test on OVCAR-8 ovarian of 9.2 µM.

As to `CCOC(=O)c1c(N)n(-c2ccccc2)c(=S)n(-c2ccccc2)c1=O`, the TGI in the test on M14 melanoma, in the test on NCI-H23 lung, with RXF 393 renal, with K-562 leukemia, in the test on HT29 colon and in the test with SN12C renal was > 100 µM in each case. The TGI with A549 NSCLC, with OVCAR-8 ovarian and with HOP-92 NSCLC was > 100 µM each time.
